Source: patent publication EP3057950B1, “PHENYL LINKED QUINOLINYL MODULATORS OF ROR-GAMMA-T” (Janssen Pharmaceutica NV, priority 2013, dated 2015)
Counter-ions that a name gives are not always drawn.

What was measured:
[1] = biological target: T1, wild type human RORγt ligand binding domain (RORγt LBD) (Homo sapiens, UniProt P51449); assay: RORγt ThermoFluor® Assay (thermal shift, binding affinity); settings: pH 7.0, estimated from concentration response curves
T1 construct: His-tag (N); TurboTEV protease cleavage site (ENLYFQG) (N); made in house; host or cells: E. coli (pHIS1, modified pET expression vector)
T1 sequence (P51449 269-508 limits assumed): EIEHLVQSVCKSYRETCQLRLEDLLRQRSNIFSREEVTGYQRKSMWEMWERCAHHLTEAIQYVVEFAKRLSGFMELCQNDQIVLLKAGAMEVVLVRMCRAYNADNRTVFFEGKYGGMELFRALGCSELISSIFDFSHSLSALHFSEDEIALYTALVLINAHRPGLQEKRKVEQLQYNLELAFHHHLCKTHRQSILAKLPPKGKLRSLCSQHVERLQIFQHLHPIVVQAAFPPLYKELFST
Protocol: This approach is applicable to a wide variety of systems, and rigorous in theoretical interpretation through quantitation of equilibrium binding constants (KD).
The shift in the melting point described as a ΔTm is proportional to the concentration and affinity of the ligand.
Protein and compound solutions are dispensed into black 384-well polypropylene PCR microplates (Abgene) and overlayed with silicone oil (1 µL, Fluka, type DC 200) to prevent evaporation.
Bar-coded assay plates are robotically loaded onto a thermostatically controlled PCR-type thermal block and then heated at a typical ramp-rate of 1 °C/min for all experiments. Fluorescence was measured by continuous illumination with UV light (Hamamatsu LC6) supplied via fiber optic and filtered through a band-pass filter (380-400 nm; >6 OD cutoff). Fluorescence emission of the entire 384-well plate was detected by measuring light intensity using a CCD camera (Sensys, Roper Scientific) filtered to detect 500 ± 25 nm, resulting in simultaneous and independent readings of all 384 wells. Images were collected at each temperature, and the sum of the pixel intensity in a given area of the assay plate was recorded versus temperature. Reference wells contained RORγt without compounds, and the assay conditions were as follows: • 0.065 mg/mL RORγt • 60 µM 1,8-ANS • 100 mM Hepes, pH 7.0 • 10 mM NaCl • 2.5 mM GSH • 0.002% Tween-20
Project compounds were arranged in a pre-dosed mother plate (Greiner Bio-one) wherein compounds are serially diluted in 100% DMSO by 1:2 from a high concentration of 10 mM over 12 columns within a series (column 12 is a reference well containing DMSO, no compound). The compounds were robotically dispensed directly into assay plates (1x = 46 nL) using a Hummingbird capillary liquid handling instrument (Digilab). Following compound dispense, protein and dye in buffer was added to achieve the final assay volume of 3 µL, followed by 1 µL of silicone oil.

[2] = biological target: T2, wild type human RORγt LBD (Homo sapiens, UniProt P51449); assay: RORγt Reporter Assay (GAL4-RORγt LBD luciferase in HEK293T cells); assay type: cell-based; settings: HEK293T cells; for IC50: compounds for 24 hours, read-out: RORγt reporter Assay, IC50; for inhibition at 6 µM: HEK-293T, read-out: RORγt reporter Assay, % inhibition @ 6 µM, @ 6 µM
T2 construct: expressed in transfected cells; host or cells: HEK293T
T2 sequence (P51449 269-508 limits assumed): T1 sequence (P51449 269-508 limits assumed)
Source text: A reporter assay was used to test functional activity of RORγt modulatory compounds on transcriptional activation driven by the RORγt LBD. Cells used in the assay were co-transfected with two constructs. The first construct, pBIND-RORγt LBD, contained the wild type human RORγt LBD fused to the DNA binding domain of the GAL4 protein. The second construct, pGL4.31 (Promega Cat no. C935A), contained multiple GAL4 responsive DNA elements upstream of firefly luciferase. […] The mutant construct was called pBIND-RORγt-AF2.
The pBIND vector contains the GAL4 DNA Binding Domain (GAL4 DBD) and the renilla luciferase gene under control of the SV40 promoter. Renilla luciferase expression serves as a control for transfection efficiency and cell viability.
The reporter assay was performed by transiently transfecting HEK293T cells with 5 µg of pBIND-RORγt LBD or pBIND-RORγt LBD-AF2 and 5 µg pGL4.31 (Promega Cat no. C935A) using Fugene 6 (Invitrogen Cat no. E2691) at a 1:6 ratio of DNA: Fugene 6 in a T-75 flask in which cells were at least 80% confluent. Twenty four hours after bulk transfection, cells were plated into 96-well plates at 50,000 cells/well in phenol-red free DMEM containing 5% Lipid Reduced FCS and Pen/Strep. Six hours after plating, cells were treated with compounds for 24 hours. Media was removed and cells were lysed with 50 µL 1x Glo Lysis Buffer (Promega). Dual Glo Luciferase Reagent (50 µL/well) was then added and firefly luciferase luminescence was read on an Envision after a ten minute incubation. Finally, Stop and Glo reagent (50 µL/well) was added and renilla luciferase luminescence was read on an Envision instrument after a ten minute incubation. To calculate the effect of compounds on RORγt activity, the ratio of firefly to renilla luciferase was determined and plotted against compound concentration. Agonist compounds increase RORγt-driven luciferase expression, and antagonist or inverse agonist compounds decrease luciferase expression.

Cn1cncc1C(O)(c1ccc2nc(C#N)c(-c3ccccc3)c(C#N)c2c1)c1ccccn1 (single isomer, unassigned) [Example 18b, 6-(Hydroxy(1-methyl-1H-imidazol-5-yl)(pyridin-2-yl)methyl)-3-phenylquinoline-2,4-dicarbonitrile]
Kd [1]: 14000 nM | RORγt reporter Assay, % inhibition @ 6 µM [2]: 40% | IC50 [2]: > 6000 nM

Cn1cncc1C(O)(c1ccc2nc(C#N)c(-c3ccccc3)c(C#N)c2c1)c1ccccn1 (single isomer, unassigned) [Example 18c, 6-(Hydroxy(1-methyl-1H-imidazol-5-yl)(pyridin-2-yl)methyl)-3-phenylquinoline-2,4-dicarbonitrile]
Kd [1]: 330 nM | RORγt reporter Assay, % inhibition @ 6 µM [2]: 95% | IC50 [2]: 850 nM

COc1nc2c(C)cc(C(O)(c3ccc(C(F)(F)F)nc3)c3cncn3C)cc2c(C#N)c1-c1ccc(OC(F)(F)F)cc1 (single isomer, unassigned) [Example 19c, 6-(Hydroxy(1-methyl-1H-imidazol-5-yl)(6-(trifluoromethyl)pyridin-3-yl)methyl)-2-methoxy-8-methyl-3-(4-(trifluoromethoxy)phenyl)quinoline-4-carbonitrile]
Kd [1]: 17 nM | RORγt reporter Assay, % inhibition @ 6 µM [2]: 35% | IC50 [2]: > 6000 nM

CC(=O)N1CCC(C(O)(c2ccccc2)c2cc(C)c3nc(C#N)c(-c4ccccc4)c(C#N)c3c2)CC1 (single isomer, unassigned) [Example 21b, 6-((1-Acetylpiperidin-4-yl)(hydroxy)(phenyl)methyl)-8-methyl-3-phenylquinoline-2,4-dicarbonitrile]
Kd [1]: 1300 nM | IC50 [2]: 1600 nM | inhibition at 6 µM [2]: 87%

Cc1cc(C(O)(c2ccc(Cl)cc2)c2cncn2C)cc2c(C#N)c(-c3ccccc3)c(C#N)nc12 (single isomer, unassigned) [Example 23b, 6-((4-Chlorophenyl)(hydroxy)(1-methyl-1H-imidazol-5-yl)methyl)-8-methyl-3-phenylquinoline-2,4-dicarbonitrile]
Kd [1]: 15000 nM | RORγt reporter Assay, % inhibition @ 6 µM [2]: 60% | IC50 [2]: ~4000 nM

Cc1cc(C(O)(c2ccc(C(F)(F)F)nc2)c2cncn2C)cc2c(C#N)c(-c3ccccc3)c(C#N)nc12 (single isomer, unassigned) [Example 25b, 6-(Hydroxy(1-methyl-1H-imidazol-5-yl)(6-(trifluoromethyl)pyridin-3-yl)methyl)-8-methyl-3-phenylquinoline-2,4-dicarbonitrile]
Kd [1]: 3500 nM | IC50 [2]: ~2000 nM | inhibition at 6 µM [2]: 87%

CC(=O)N1CCC(C(O)(c2ccc(C(F)(F)F)nc2)c2cc(C)c3nc(C#N)c(-c4ccccc4)c(C#N)c3c2)CC1 (single isomer, unassigned) [Example 27b, 6-((1-Acetylpiperidin-4-yl)(hydroxy)(6-(trifluoromethyl)pyridin-3-yl)methyl)-8-methyl-3-phenylquinoline-2,4-dicarbonitrile]
Kd [1]: 15000 nM | IC50 [2]: ~4000 nM | inhibition at 6 µM [2]: 80%

CC(=O)N1CCC(C(O)(c2ccc(C(F)(F)F)nc2)c2cc(C)c3nc(C#N)c(-c4ccccc4)c(C#N)c3c2)CC1 (single isomer, unassigned) [Example 27c, 6-((1-Acetylpiperidin-4-yl)(hydroxy)(6-(trifluoromethyl)pyridin-3-yl)methyl)-8-methyl-3-phenylquinoline-2,4-dicarbonitrile]
Kd [1]: 820 nM | RORγt reporter Assay, % inhibition @ 6 µM [2]: 96% | IC50 [2]: 2100 nM

COc1c(-c2ccccc2)c(C(F)(F)F)nc2ccc(C(O)(c3ccccn3)c3cncn3C)cc12 (single isomer, unassigned) [Example 32b, (4-Methoxy-3-phenyl-2-(trifluoromethyl)quinolin-6-yl)(1-methyl-1H-imidazol-5-yl)(pyridin-2-yl)methanol]
Kd [1]: 770 nM | IC50 [2]: 1200 nM | inhibition at 6 µM [2]: 92%

COc1c(-c2ccccc2)c(C(F)(F)F)nc2ccc(C(O)(c3ccc(Cl)cc3)c3cncn3C)cc12 (single isomer, unassigned) [Example 33b, (4-Chlorophenyl)(4-methoxy-3-phenyl-2-(trifluoromethyl)quinolin-6-yl)(1-methyl-1H-imidazol-5-yl)methanol]
Kd [1]: 13000 nM | RORγt reporter Assay, % inhibition @ 6 µM [2]: 64% | IC50 [2]: ~4000 nM

CC(=O)N1CCC(C(O)(c2ccc3nc(C(F)(F)F)c(-c4ccccc4)c(Cl)c3c2)c2cncn2C)CC1 (single isomer, unassigned) [Example 34b, 1-(4-((4-Chloro-3-phenyl-2-(trifluoromethyl)quinolin-6-yl)(hydroxy)(1-methyl-1H-imidazol-5-yl)methyl)piperidin-1-yl)ethanone]
Kd [1]: 450 nM | IC50 [2]: 1000 nM | inhibition at 6 µM [2]: 90%

COc1c(-c2ccccc2)c(Cl)nc2ccc(C(O)(c3cnnn3C)c3cnc(C)n3C)cc12 (single isomer, unassigned) [Example 40b, (2-Chloro-4-metboxy-3-phenylquinolin-6-yl)(1,2-dimethyl-1H-imidazol-5-yl)(1-methyl-1H-1,2,3-triazol-5-yl)methanol]
inhibition at 6 µM [2]: 97%

Cc1nc(C)c(C(O)(c2ccc3nc(C#N)c(-c4ccccc4)c(C#N)c3c2)c2cnnn2C)s1 (single isomer, unassigned) [Example 47b, 6-((2,4-Dimethylthiazol-5-yl)(hydroxy)(1-methyl-1H-1,2,3-triazol-5-yl)methyl)-3-phenylquinoline-2,4-dicarbonitrile]
Kd [1]: 930 nM | IC50 [2]: ~2000 nM | inhibition at 6 µM [2]: 80%

COc1nc2ccc(C(O)(c3ncccn3)c3cncn3C)cc2c(Cl)c1-c1ccccc1 (single isomer, unassigned) [Example 60b, (4-Chloro-2-methoxy-3-phenylquinolin-6-yl)(1-methyl-1H-imidazol-5-yl)pyrimidin-2-ylmethanol]
Kd [1]: 900 nM | IC50 [2]: ~2000 nM | inhibition at 6 µM [2]: 87%

COCCN(C)c1nc2ccc(C(O)(c3ccc(C(F)(F)F)nc3)c3cncn3C)cc2c(Cl)c1-c1ccccc1 (centres unmarked) [Example 53, {4-Chloro-2-[(2-methoxyethyl)(methyl)amino]-3-phenylquinolin-6-yl}(1-methyl-1H-imidazol-5-yl)[6-(trifluoromethyl)pyridin-3-yl]methanol]
Kd [1]: 7.2 nM

CON(C)c1nc2ccc(C(O)(c3ccc(Cl)cc3)c3cncn3C)cc2c(N(C)OC)c1-c1ccccc1 (centres unmarked) [Example 59, {2,4-Bis[methoxy(methyl)amino]-3-phenylquinolin-6-yl}(4-chlorophenyl)(1-methyl-1H-imidazol-5-yl)methanol]
inhibition at 6 µM [2]: 98%

CC(C)Oc1nc2ccc(C(O)(c3cccnc3)c3cccc(Cl)c3)cc2cc1-c1ccccc1 (centres unmarked) [Example 79, (3-Chlorophenyl)(2-isopropoxy-3-phenylquinolin-6-yl)(pyridin-3-yl)methanol•TFA]
Kd [1]: 17000 nM

CCOc1nc2ccc(C(O)(c3cccnc3)c3cccc(Cl)c3)cc2c(OCC)c1-c1ccccc1 (centres unmarked) [Example 81, (3-Chlorophenyl)(2,4-diethoxy-3-phenylquinolin-6-yl)(pyridin-3-yl)methanol•TFA]
Kd [1]: 14000 nM
